In patent publication US10206944B2, “Chondroitin for use in medicine” (ALTERGON S.A., priority 2012, dated 2019):

Legend:
[1] = system: HaCat cells; experiment: Wound-healing test by time-lapse microscopy (keratinocyte growth); format: cell-based, human; settings: for time to wound repair (closure of the cut): HaCat confluent layer with cut, time-lapse, control closes after 40 h; for effect on the repair process: concentration of 0.1 w/v
Experimental: HaCat cells, an immortalised cell line of human keratinocytes, are used as model system. The HaCat cells are grown and amplified in Dulbecco's Modified Eagle Medium (DMEM) containing 10% foetal bovine serum (FBS)+1% Pen-Strep solution (10,000 units of penicillin-G/mL and 10 mg of streptomycin/mL in saline solution) in an incubator for cell cultures (37° C., 5% CO2 in humid air). The wound-healing experiments are conducted by time-lapse optical microscopy, a technique that allows cell behaviour to be monitored for lengthy times (2-4 days) in terms of adhesion, proliferation and motility. The system consists of an inverted optical microscope (Zeiss Axiovert 200), a thermostatic bath (LAUDA Ecoline), a CO2 microincubator with geometry such as to house plates of variable dimensions (from 6 to 96 wells), and a control unit for the output gases (air and CO2). The instrument is also equipped with a digital video camera and a control motor, which allows the incubator to move along directions x, y and z so that the images selected by the operator can be recorded and acquired at pre-set intervals.
The system thus assembled allows the cells to be maintained in an environment that reproduces the optimum conditions for cell growth (atmosphere with 5% v/v of CO2 in humid air and temperature of 37±0.1° C.), and monitored throughout the experiment. The system is also equipped with software which allows accurate analysis of the images. In particular, the instrumentation is equipped with automated software which allows wound repair to be calculated in wound-healing tests and provides data about the repair rate and cell migration rate, which are important parameters for evaluating the biorevitalising effect of substances that can accelerate or inhibit wound repair in vitro. […]

[2] = system: Aggrecan; experiment: Real-Time PCR gene expression in human chondrocytes: aggrecan; format: cell-based; settings: 1% w/v, ratio to untreated control
Experimental: To evaluate the biological effects of chondroitin on human chondrocyte cultures, the expression of a set of genes considered key to establishing the phenotype, and suitable markers for evaluating the quality of the tissue generated, was determined. The study was conducted on chondrocytes prepared from human cartilage, as reported in Example 2, the cells being grown in the presence of chondroitin or chondroitin sulphate. Using a standard procedure, 5*10^4 cells per well were seeded in a 24-well multiwell plate. The chondrocytes were grown in DMEM containing 1% w/v of chondroitin or chondroitin sulphate (endotoxin content ≤0.1 EU/mg). The cells were stimulated for 4, 7 and 10 days (Ishak et al., International J. of Pediatric Otorhinolaryngology, 2011, 75: 835-840), after which the RNA was extracted with Trizol Reagent, as described in the kit manual (Life Technologies Ltd, Milan, Italy). A qualitative morphological analysis of the cell culture was also conducted at the various times, in parallel with RNA extraction, by observing the corresponding samples at 4, 7 and 10 days under the optical microscope. The cells seeded at the three different times were observed under the microscope, and the images that best represented the cell growth conditions were acquired using a time-lapse videomicroscopy workstation. After RNA extraction, reverse transcription was performed with a total of 1 μg RNA and then with amplification by Real-Time PCR of genes which are specific markers for chondrocytes (Table 3).
Genes connected with matrix production, such as aggrecan, type I collagen, type II collagen and the Sox9 gene, the expression of which is closely correlated with the expression of type II collagen, were analysed as specific markers for differentiation and characterisation of chondrocytes. (Akiyama H., Mod Rheumatol., 2008, 18(3): 213-9; Yang et al., J. of Orthopaedic Res. 2011).
The gene expression of said markers on human chondrocytes cultured in basic medium (control) and with chondroitin treatment (C) or chondroitin sulphate treatment (CS) was analysed on cell cultures in the second and third growth phases.
The results of the gene expression analysis were reported as the average of at least 3 independent experiments for tests conducted in the presence of C or CS, on cells in phases 2 and 3.

Substance | time to wound repair (closure of the cut) [1] | effect on the repair process [1] | Fold Expression, Aggrecan ([2]; phase II, 4 g) | Fold Expression, Aggrecan ([2]; phase II, 7 g) | Fold Expression, Aggrecan ([2]; phase II, 10 g) | Fold Expression, Aggrecan ([2]; phase III, 4 g) | Fold Expression, Aggrecan ([2]; phase III, 7 g) | Fold Expression, Aggrecan ([2]; phase III, 10 g)
chondroitin | less than 20 h | accelerates the repair process | 0.08 ± 0.02 | 1.66±0.22 | 1.07 ± 0.15 | 0.16 ± 0.08 | 0.79 ± 0.2 | 2.3 ± 1.0
chondroitin sulphate [CS, reference compound] | > 70 h | slows it | 1.28 ± 0.75 | 0.72 ± 0.27 | 0.45 ± 0.19 | 0.17 ± 0.10 | 0.87 ± 0.20 | 0.59 ± 0.13
